{"source": "patent US20200215153A1", "about": "“CANCER TREATMENT AND/OR PREVENTION THROUGH REGULATION OF UBIQUITINATION” (Academia Sinica, priority 2018, published 2020)", "format_in_all_cases": "cell-based", "key": {"BIK [1]": {"tested_on": "BIK", "test": "Western blot analysis of BIK levels in 293T cells", "description": "FIG. 2. […] (d) Western blot analysis of BIK levels in indicated cells stably expressing control or ASB11 shRNAs.\nCell extraction was performed with RIPA lysis buffer containing 50 mM Tris (pH 8.0), 0.15 M NaCl, 1% NP40, 1% sodium deoxycholate, 0.1% SDS, 1 mM PMSF, 1 µg/ml aprotinin, and 1 µg/ml leupeptin. Western blot was performed with the standard protocol. For an efficient detection of BIK by Western blot, Tricine-SDS-PAGE was used. Western blot analyses of other proteins were performed with Glycine-SDS-PAGE. Immunoprecipitation was performed and analyzed as previously described. Briefly, cell lysates were incubated with primary antibody for overnight. The Pure Proteome Protein A/G Magnetic Beads (LSKMAGA/G10, EMD Millipore) were then added into cell lysates and incubated for 1.5 h. The beads were washed with RIPA lysis buffer and the bound proteins were analyzed by Western blot."}, "ASB11 [2]": {"tested_on": "ASB11", "test": "Western blot analysis of ASB11 protein expression under ER stress", "details": "multiple cell lines; 10 μg/ml tunicamycin or 200 nM thapsigargin, 16 h; FIG. 4a", "description": "FIG. 4. ER stress stimulates BIK ubiquitination and degradation through ASB11 and p97. (a) Western blot analysis of BIK and ASB11 levels in 293T cells treated with 10 μg/ml tunicamycin or 200 nM of thapsigargin for 16 h. (b) Western blot analysis of BIK levels in 293T cells treated with 10 μg/ml tunicamycin for 12 h and then with 50 μg/ml cycloheximide for indicated time periods. The relative amounts of BIK are indicated on the bottom. (c, e) Analysis of endogenous (c) or exogenous (e) BIK ubiquitination in 293T cells (c) or 293T derivatives as in FIG. 2d (e) transfected with indicated constructs and treated with tunicamycin. (d) Western blot analysis of 293T derivatives as in FIG. 2d treated with 10 μg/ml tunicamycin for 16 h. (f) Western blot analysis of BIK levels in 293T derivatives co-treated with 10 μg/ml tunicamycin and MG132 for 16 h. (g) Western blot analysis of BIK expression in 293T cells co-treated with tunicamycin and 10 μM CB-5083 for 16 h. […]\n(§1) Cell extraction was performed with RIPA lysis buffer containing 50 mM Tris (pH 8.0), 0.15 M NaCl, 1% NP40, 1% sodium deoxycholate, 0.1% SDS, 1 mM PMSF, 1 µg/ml aprotinin, and 1 µg/ml leupeptin. […] Immunoprecipitation was performed and analyzed as previously described. […] The beads were washed with RIPA lysis buffer and the bound proteins were analyzed by Western blot."}, "ASB11 [3]": {"tested_on": "ASB11", "test": "Western blot analysis of ASB11 expression in HCT116 cells", "details": "p53-dependent manner, FIG. 5b", "description": "(§2) FIG. 5. […] (a) RT-qPCR analysis of ASB11 mRNA expression in indicated HCT116 cells treated with indicated dosages of doxorubicin or 5-FU for 24 h. […] (b) Western blot analysis of BIK and ASB11 expression in indicated HCT116 cells treated as in (a). (c) HCT116 p53^+/+ cells stably expressing control or ASB11 shRNA were treated with 10 μM 5-FU for 24 h and then with cycloheximide for indicated time points. Cells were lysed for Western blot analysis of BIK expression and the relative amounts of BIK are indicated on the bottom. The expression levels of ASB11 and BIK in the stable lines are shown on the bottom panel. (d) Western blot analysis of IRE1α expression and RT-qPCR analysis of XBP1 mRNA splicing in indicated HCT116 cells treated with 3 μg/ml doxorubicin or 10 μM 5-FU for 24 h. (e) RT-qPCR analysis of ASB11 and XBPls mRNA expression in HCT116 cells transfected with XBP1s and/or treated with 3 μg/ml doxorubicin for 16 h. […]\nas §1"}, "ASB11 mRNA [4]": {"tested_on": "ASB11 mRNA", "test": "RT-qPCR analysis of ASB11 mRNA expression in HCT116 cells treated with genotoxic agents", "details": "p53-proficient HCT116 cells, 24 h; FIG. 5a", "description": "(§3) FIG. 5. […] (a) RT-qPCR analysis of ASB11 mRNA expression in indicated HCT116 cells treated with indicated dosages of doxorubicin or 5-FU for 24 h. […] (b) Western blot analysis of BIK and ASB11 expression in indicated HCT116 cells treated as in (a). (c) HCT116 p53^+/+ cells stably expressing control or ASB11 shRNA were treated with 10 μM 5-FU for 24 h and then with cycloheximide for indicated time points. Cells were lysed for Western blot analysis of BIK expression and the relative amounts of BIK are indicated on the bottom. The expression levels of ASB11 and BIK in the stable lines are shown on the bottom panel. (d) Western blot analysis of IRE1α expression and RT-qPCR analysis of XBP1 mRNA splicing in indicated HCT116 cells treated with 3 μg/ml doxorubicin or 10 μM 5-FU for 24 h. (e) RT-qPCR analysis of ASB11 and XBPls mRNA expression in HCT116 cells transfected with XBP1s and/or treated with 3 μg/ml doxorubicin for 16 h. […] (f) Analysis of BIK ubiquitination in HCT116 cells transfected with indicated constructs and/or treated with 3 μg/ml doxorubicin for 16 h. Total mRNA was extracted from cells using TRIZOL reagent (Invitrogen), and equal amounts of RNA were reverse transcribed to cDNA using the iScript™ cDNA Synthesis Kit (Bio-Rad). Quantitative real-time PCR was performed using the Power SYBR Green PCR Master kit (Applied Biosystems). […]"}, "IRE1α": {"tested_on": "IRE1α", "test": "Western blot analysis of IRE1α expression in HCT116 cells", "details": "3 μg/ml doxorubicin or 10 μM 5-FU, 24 h, p53-dependent manner, FIG. 5d", "description": "as §2, §1"}, "ASB11 mRNA [5]": {"tested_on": "ASB11 mRNA", "test": "RT-qPCR analysis of ASB11 mRNA in H1299 cells treated with doxorubicin", "details": "p53-transfected H1299 cells", "description": "Total mRNA was extracted from cells using TRIZOL reagent (Invitrogen), and equal amounts of RNA were reverse transcribed to cDNA using the iScript™ cDNA Synthesis Kit (Bio-Rad). Quantitative real-time PCR was performed using the Power SYBR Green PCR Master kit (Applied Biosystems). Amplification was performed on an ABI 7500 Fast Real-Time PCR system and GAPDH was used as an internal control."}, "XBP1 mRNA splicing": {"tested_on": "XBP1 mRNA splicing", "test": "RT-qPCR analysis of XBP1 mRNA splicing in HCT116 cells", "details": "3 μg/ml doxorubicin or 10 μM 5-FU, 24 h, p53-dependent manner, FIG. 5d", "description": "as §3"}, "BIK [6]": {"tested_on": "BIK", "test": "Western blot analysis of BIK expression in HCT116 cells", "details": "p53-dependent manner, FIG. 5b", "description": "as §2, §1"}, "[7]": {"tested_on": "TNBC cells (Hs578T, MDA-MB157, MDA-MB468)", "test": "MTT assay for viability of TNBC cells transfected with BIKDD and treated with IRE1α inhibitor", "details": "combined with BIKDD", "description": "FIG. 7. […] (a, c) MTT assay for the viability of indicated TNBC cells transfected with […] CMV-BIKDD (a) or VISA-BIKDD (c) and treated with 10 or 100 μM STF-083010 for 48 h. CI values are indicated. (b) Western blot analysis of cleaved PARP in indicated TNBC cells transfected with CMV-BIKDD and treated with 100 μM STF-083010 for 36 h. […] Tumor volume were measured at indicated days and plotted. Data are mean±s.d., *P<0.05; ***P<0.001 by two-way ANOVA with Turkey's post test, n=5. Tumors were surgically removed at day 49 and their sizes are shown on the right. (e) Mice orthotopically implanted with Hs578T cells and treated with VISA-BIKDD lipid nanoparticle together with STF-083010 or DMSO starting at day 28 after tumor cell implantation (see Materials and Methods). Tumor volume were measured at indicated days and plotted. Data are mean±s.d., ***P<0.001 by two-way ANOVA with Turkey's post test, n=5. Tumors were surgically removed at day 66 and their sizes are shown on the right.\nMDA-MB157 and MDA-MB 468 cells were seeded at a density of 5×10^3 cells and Hs578T cells were at 2×10^3 cells in 96-well plates. Cells were transfected with BIKDD. In the next day, cells were treated with IRE1α inhibitor or DMSO for 48 h and then with 0.4 mg/ml methylthiazolyldiphenyltetrazolium bromide (MTT) (Sigma) for 2 h. Cells were dissolved in DMSO, followed by absorbance measurement at 590 nm. The combination index (CI) was calculated using the equation: CI=CA/IC50A+CB/IC50B. CA and CB represent the concentrations of the two agents for combined treatment. IC50A and IC50B are the IC50 values for each single treatment, which were determined by treating cells with various dosages of each agent followed by MTT assay. (CI<1) indicates a synergistic effect, (CI>1) corresponds to an antagonistic effect, and (CI=1) represents an additive effect."}, "BIK [8]": {"tested_on": "BIK", "test": "Cycloheximide-chase analysis of BIK protein stability in HCT116 p53+/+ cells", "details": "p53-proficient HCT116 cells, 10 μM 5-FU 24 h then cycloheximide; FIG. 5c", "description": "FIG. 5. […] (a) RT-qPCR analysis of ASB11 mRNA expression in indicated HCT116 cells treated with indicated dosages of doxorubicin or 5-FU for 24 h. […] (b) Western blot analysis of BIK and ASB11 expression in indicated HCT116 cells treated as in (a). (c) HCT116 p53^+/+ cells stably expressing control or ASB11 shRNA were treated with 10 μM 5-FU for 24 h and then with cycloheximide for indicated time points. Cells were lysed for Western blot analysis of BIK expression and the relative amounts of BIK are indicated on the bottom. The expression levels of ASB11 and BIK in the stable lines are shown on the bottom panel. (d) Western blot analysis of IRE1α expression and RT-qPCR analysis of XBP1 mRNA splicing in indicated HCT116 cells treated with 3 μg/ml doxorubicin or 10 μM 5-FU for 24 h. (e) RT-qPCR analysis of ASB11 and XBPls mRNA expression in HCT116 cells transfected with XBP1s and/or treated with 3 μg/ml doxorubicin for 16 h. […] (f) Analysis of BIK ubiquitination in HCT116 cells transfected with indicated constructs and/or treated with 3 μg/ml doxorubicin for 16 h."}}, "note": "Peptide text beside a SMILES is read from it. * marks the point of attachment. Cbz = O=C(OCc1ccccc1)*"}
{"compound": "CC(C)C[C@@H](C=O)NC(=O)[C@H](CC(C)C)NC(=O)[C@H](CC(C)C)NC(=O)OCc1ccccc1", "note": "[MG132] (Cbz-Leu-Leu-Leu-aldehyde)", "values": [{"measurement": "effect on the decrease of BIK protein level caused by ASB11 overexpression", "setting": "BIK [1]; 293T cells transfected with ASB11, FIG. 2b", "value": "reversed"}]}
{"compound": "C/C=C(/C)C(=O)O[C@H]1C(C)=C2[C@H]([C@@H]1OC(=O)CCCCCCC)[C@@](C)(OC(C)=O)C[C@H](OC(=O)CCC)[C@@]1(O)[C@H]2OC(=O)[C@@]1(C)O", "note": "[thapsigargin]", "values": [{"measurement": "ASB11 protein expression", "setting": "ASB11 [2]", "value": "elevated"}, {"measurement": "BIK protein level", "setting": "BIK [1]; multiple cell lines, 10 μg/ml tunicamycin or 200 nM thapsigargin, 16 h, FIG. 4a", "value": "reduced"}]}
{"compound": "COc1cccc2c1C(=O)c1c(O)c3c(c(O)c1C2=O)C[C@@](O)(C(=O)CO)C[C@@H]3O[C@H]1C[C@H](N)[C@H](O)[C@H](C)O1", "note": "[doxorubicin]", "values": [{"measurement": "ASB11 protein level", "setting": "ASB11 [3]", "value": "downregulated"}, {"measurement": "ASB11 mRNA level", "setting": "ASB11 mRNA [4]", "value": "reduced"}, {"measurement": "IRE1a level", "setting": "IRE1α", "value": "reduced"}, {"measurement": "ASB11 mRNA", "setting": "ASB11 mRNA [5]", "value": "downregulated"}, {"measurement": "XBP1 mRNA splicing", "setting": "XBP1 mRNA splicing", "value": "reduced"}, {"measurement": "BIK protein level", "setting": "BIK [6]", "value": "upregulated"}]}
{"compound": "Cc1cc2c(C(N)=O)cccc2n1-c1nc2c(c(NCc3ccccc3)n1)COCC2", "note": "[CB-5083]", "values": [{"measurement": "effect on BIK downregulation induced by ER stress or ASB11 overexpression", "setting": "BIK [1]; 293T cells, 10 μM CB-5083, 16 h, co-treated with tunicamycin, FIG. 4g", "value": "abrogated"}]}
{"compound": "Cc1cc(=O)oc2c(C=O)c(O)ccc12", "note": "[4μ8C, 7-Hydroxy-4-methyl-2-oxo-2H-1-benzopyran-8-carboxaldehyde]", "values": [{"measurement": "killing effect of BIKDD on TNBC cells on combined administration", "setting": "[7]", "value": "enhanced"}]}
{"compound": "O=c1[nH]cc(F)c(=O)[nH]1", "note": "[5-FU, 5-fluorouracil]", "values": [{"measurement": "ASB11 protein level", "setting": "ASB11 [3]", "value": "downregulated"}, {"measurement": "ASB11 mRNA level", "setting": "ASB11 mRNA [4]", "value": "reduced"}, {"measurement": "IRE1a level", "setting": "IRE1α", "value": "reduced"}, {"measurement": "BIK protein stability", "setting": "BIK [8]", "value": "increased"}, {"measurement": "XBP1 mRNA splicing", "setting": "XBP1 mRNA splicing", "value": "reduced"}, {"measurement": "BIK protein level", "setting": "BIK [6]", "value": "upregulated"}]}
